From ChEMBL document CHEMBL1201862, “PubChem BioAssay data set” (2004)
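These data come from cells grown in 96-well plates and exposed to compound for 48 hours at five concentrations. The concentration for 50% growth inhibition is given as GI50.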 The source made the active and inactive calls. Cut-off read from the data, not from the text of the source: active = GI50 up to about 1.1 µM and inactive = higher.

What was measured:
Assay in all cases: NCI anticancer screen, dose series, 48 h
[1] = test system: K562
[2] = test system: A549
[3] = test system: RPMI-8226
[4] = test system: SN12C
[5] = test system: OVCAR-8
[6] = test system: CAKI-1
[7] = test system: SF-268
[8] = test system: HT-29
[9] = test system: LXFL 529
[10] = test system: SNB-75
[11] = test system: UO-31
[12] = test system: SF-539
[13] = test system: ACHN
[14] = test system: HCC 2998
[15] = test system: A498
[16] = test system: DU-145
[17] = test system: BT-549
[18] = test system: MDA-MB-435
[19] = test system: MCF7
[20] = test system: Hs-578T

Structure (SMILES) | GI50 [1] | GI50 [2] | GI50 [3] | GI50 [4] | GI50 [5] | GI50 [6] | GI50 [7] | GI50 [8] | GI50 [9] | GI50 [10] | GI50 [11] | GI50 [12] | GI50 [13] | GI50 [14] | GI50 [15] | GI50 [16] | GI50 [17] | GI50 [18] | GI50 [19] | GI50 [20]
CC1=NN(C(=O)CC(=O)Nc2ccccc2F)C(=O)C1/N=N/c1ccccc1[N+](=O)[O-] (stereo not drawn) | > 100 µM (inactive) | 64.7 µM (inactive) | > 100 µM (inactive) | > 100 µM (inactive) | 58.5 µM (inactive) | 75.5 µM (inactive) | > 100 µM (inactive) | > 100 µM (inactive) | > 100 µM (inactive) | > 100 µM (inactive) | 81.1 µM (inactive) | 58.7 µM (inactive) |  |  |  |  |  |  |  | 
NNC(=O)C1CCC(=O)N1S(=O)(=O)c1ccccc1 (stereo not drawn) | > 100 µM (inactive) | > 100 µM (inactive) | > 100 µM (inactive) | > 100 µM (inactive) | > 100 µM (inactive) | > 100 µM (inactive) | > 100 µM (inactive) | > 100 µM (inactive) | > 100 µM (inactive) | > 100 µM (inactive) | > 100 µM (inactive) | > 100 µM (inactive) | > 100 µM (inactive) | > 100 µM (inactive) |  |  |  |  |  | 
Cc1cc2c(=O)c(C)n[nH]c2c(C#N)c1C |  | > 100 µM (inactive) | > 100 µM (inactive) | > 100 µM (inactive) | > 100 µM (inactive) |  | > 100 µM (inactive) | > 100 µM (inactive) | > 100 µM (inactive) | > 100 µM (inactive) | > 100 µM (inactive) | > 100 µM (inactive) | > 100 µM (inactive) | > 100 µM (inactive) |  |  |  |  |  | 
Cc1cc2c(cc1Cl)SC(NNc1ccc([N+](=O)[O-])cc1)=NS2(=O)=O | > 10 µM (inactive) | > 10 µM (inactive) | > 10 µM (inactive) | > 10 µM (inactive) | > 10 µM (inactive) | > 10 µM (inactive) | > 10 µM (inactive) | > 10 µM (inactive) |  | > 10 µM (inactive) | > 10 µM (inactive) | > 10 µM (inactive) | > 10 µM (inactive) | > 10 µM (inactive) | > 10 µM (inactive) | > 10 µM (inactive) | > 10 µM (inactive) | > 10 µM (inactive) | > 10 µM (inactive) | > 10 µM (inactive)
Cc1ccc(CC2(OCCN(C)C)CCC(C(C)(C)C)CC2)cc1 (stereo not drawn) | 1.87 µM (inactive) | 7 µM (inactive) | 2.21 µM (inactive) | 5.97 µM (inactive) | 9.4 µM (inactive) | 4.21 µM (inactive) | 9.33 µM (inactive) | 2.23 µM (inactive) |  | 6.71 µM (inactive) | 5.33 µM (inactive) | 3.26 µM (inactive) | 8.02 µM (inactive) | 1.9 µM (inactive) | 11.4 µM (inactive) | 5.47 µM (inactive) | 6.22 µM (inactive) | 2.4 µM (inactive) | 3.08 µM (inactive) | 8.04 µM (inactive)
C/C(=N\c1ccc(Cl)cc1)c1ccncc1 | > 100 µM (inactive) | 4.73 µM (inactive) | 7.08 µM (inactive) | > 100 µM (inactive) | > 100 µM (inactive) | > 100 µM (inactive) | 53.5 µM (inactive) | > 100 µM (inactive) |  | > 100 µM (inactive) | 4.04 µM (inactive) | 4.31 µM (inactive) | 0.233 µM (active) | > 100 µM (inactive) | 3.96 µM (inactive) | > 100 µM (inactive) | > 100 µM (inactive) | 1.9 µM (inactive) | 32.4 µM (inactive) | > 100 µM (inactive)
Nc1ncnc2c1ccn2CC#CCO | > 100 µM (inactive) | > 100 µM (inactive) | > 100 µM (inactive) | > 100 µM (inactive) | > 100 µM (inactive) | > 100 µM (inactive) | > 100 µM (inactive) | > 100 µM (inactive) |  | > 100 µM (inactive) | > 100 µM (inactive) | > 100 µM (inactive) | > 100 µM (inactive) | > 100 µM (inactive) | > 100 µM (inactive) | > 100 µM (inactive) | > 100 µM (inactive) | > 100 µM (inactive) | > 100 µM (inactive) | > 100 µM (inactive)
O=c1c(C(c2cc(OCc3ccccc3)cc(OCc3ccccc3)c2)c2c(O)oc3ccccc3c2=O)c(O)oc2ccccc12 | 3.35 µM (inactive) | 7.05 µM (inactive) | 1.66 µM (inactive) | 3.71 µM (inactive) | 4.18 µM (inactive) | 7.26 µM (inactive) | 5.07 µM (inactive) | 4.15 µM (inactive) |  | 3.37 µM (inactive) | 4.85 µM (inactive) | 5.86 µM (inactive) | 2.92 µM (inactive) | 3.91 µM (inactive) | 12 µM (inactive) | 6.35 µM (inactive) | 5.01 µM (inactive) | 4.83 µM (inactive) | 12.3 µM (inactive) | 5.96 µM (inactive)
CO[C@@H]1C=C[C@@]23c4cc5c(cc4CN(C[C@@H]2O)[C@H]3C1)OCO5 [(+)-HAEMANTHAMINE] | 7.67 µM (inactive) | 24 µM (inactive) | 29.6 µM (inactive) | 16.1 µM (inactive) | 27.9 µM (inactive) | 6.22 µM (inactive) | 29.7 µM (inactive) | 10.4 µM (inactive) | 13.6 µM (inactive) | 9.06 µM (inactive) | 16.5 µM (inactive) | 28.6 µM (inactive) | 5.13 µM (inactive) | 15.6 µM (inactive) |  |  |  |  |  | 
C=C1CN2CCc3c([nH]c4ccccc34)C2CC1CC(=O)N(C)C (stereo not drawn) | > 309 µM (inactive) | > 309 µM (inactive) | > 309 µM (inactive) | > 309 µM (inactive) | > 309 µM (inactive) | > 309 µM (inactive) | > 309 µM (inactive) | > 309 µM (inactive) | > 309 µM (inactive) |  |  | > 309 µM (inactive) | > 309 µM (inactive) | > 309 µM (inactive) |  |  |  |  |  | 
CC1=C(C)C1[N+](=O)[O-] | > 100 µM (inactive) | > 100 µM (inactive) | > 100 µM (inactive) | > 100 µM (inactive) | > 100 µM (inactive) | > 100 µM (inactive) | > 100 µM (inactive) | > 100 µM (inactive) |  | 26.1 µM (inactive) | > 100 µM (inactive) | > 100 µM (inactive) | > 100 µM (inactive) | > 100 µM (inactive) | 97.7 µM (inactive) | > 100 µM (inactive) | > 100 µM (inactive) | > 100 µM (inactive) | > 100 µM (inactive) | > 100 µM (inactive)
NCC1(N2CCOCC2)C2CCCC21CNc1ccccc1 (stereo not drawn) | 90.6 µM (inactive) | > 100 µM (inactive) |  | > 100 µM (inactive) | > 100 µM (inactive) | > 100 µM (inactive) | > 100 µM (inactive) | > 100 µM (inactive) | > 100 µM (inactive) | 57.9 µM (inactive) | > 100 µM (inactive) | > 100 µM (inactive) | > 100 µM (inactive) | 61 µM (inactive) |  |  |  |  |  | 
CC(=O)O[C@H]1C(=O)[C@@]2(C)[C@H]([C@H](OC(=O)c3ccccc3)[C@]3(O)C[C@H](OC(=O)[C@H](O)[C@@H](NC(=O)c4ccccc4)c4ccccc4C)C(C)=C1C3(C)C)[C@]1(OC(C)=O)CO[C@@H]1C[C@@H]2O | 0.211 µM (active) | 1.7 µM (inactive) | 0.0904 µM (active) | 2.11 µM (inactive) | 1.41 µM (inactive) | 5.35 µM (inactive) | 1.2 µM (inactive) | 0.13 µM (active) |  | 0.767 µM (active) | 6.46 µM (inactive) | 0.433 µM (active) | 2.44 µM (inactive) | 0.782 µM (active) | 0.444 µM (active) | 1.85 µM (inactive) | 0.687 µM (active) | 0.07 µM (active) | 0.113 µM (active) | 0.222 µM (active)
CN(/N=C\c1ccc2ccccc2c1)C1=NCCCCN1 | 17.4 µM (inactive) | 18.8 µM (inactive) | 19.8 µM (inactive) | 18.5 µM (inactive) | 29.8 µM (inactive) | 11.8 µM (inactive) | 34.4 µM (inactive) | 16.1 µM (inactive) |  | 10.4 µM (inactive) | 13.8 µM (inactive) | 21.7 µM (inactive) | 33.7 µM (inactive) | 14.5 µM (inactive) | 21 µM (inactive) | 54.2 µM (inactive) | 14.6 µM (inactive) | 18.2 µM (inactive) | 18.2 µM (inactive) | 20.6 µM (inactive)
O=C1C=C/C(=N/c2ccccc2)c2ccccc21 | 12.5 µM (inactive) | 7.38 µM (inactive) | 12.8 µM (inactive) | 12.8 µM (inactive) | 11.3 µM (inactive) | 14.8 µM (inactive) | 11.3 µM (inactive) | 16.9 µM (inactive) |  | 6.53 µM (inactive) | 10.3 µM (inactive) | 15.1 µM (inactive) | 14.4 µM (inactive) | 10.2 µM (inactive) | 21.2 µM (inactive) | 1.68 µM (inactive) | 14.7 µM (inactive) | 1.84 µM (inactive) | 5.74 µM (inactive) | 3.74 µM (inactive)
CSC1=Nc2ccccc2N=C(c2ccc(Cl)cc2)C1 | 34.8 µM (inactive) | 43.8 µM (inactive) | 33.4 µM (inactive) | 40.5 µM (inactive) | 52.7 µM (inactive) | 22 µM (inactive) | 42.3 µM (inactive) | 23 µM (inactive) | 45 µM (inactive) |  | 24.5 µM (inactive) | 40 µM (inactive) | 36.6 µM (inactive) | > 10 µM (inactive) |  |  |  |  |  | 
Cn1cc(C(=O)c2ccccc2)c2ccccc2c1=O |  | > 100 µM (inactive) | 94.2 µM (inactive) | > 100 µM (inactive) | > 100 µM (inactive) | 50.6 µM (inactive) | > 100 µM (inactive) | > 100 µM (inactive) | 89.3 µM (inactive) | 23.4 µM (inactive) |  | > 100 µM (inactive) | > 100 µM (inactive) | > 100 µM (inactive) |  |  |  |  |  | 
